Data: article PMC12543283, “TastepepAI: An artificial intelligence platform for taste peptide de novo design” (PLOS Computational Biology, 2025)
Ends that are not written are not given here.

Assays:
[1] = tested on: human pancreatic ductal epithelial cells (HPNE)
[2] = tested on: human embryonic kidney cells (HEK293T)
[3] = tested on: human umbilical vein endothelial cells (HUVEC)
[4] = tested on: human bronchial epithelial cells (BEAS-2B)
[5] = Electronic tongue analysis (Taste-Sensing System SA 402B); design: unit not given here; settings: reference solution 30 mM KCl + 0.3 mM tartaric acid as baseline, first measurement excluded; for Umami: sensor AAE; for Umami / Bitter / Sweet: detection threshold 0, room temperature; for Umami / Bitter / Sour / Salty: four replicates; for Sour: detection threshold -13, room temperature; for Salty: detection threshold -6, room temperature; for Sweet: measured five times
Protocol: Taste characteristics were analyzed using the electronic tongue system E-tongue (Taste-Sensing System SA 402B, Intelligent Sensor Technology Co. Ltd., Japan). The system was equipped with five specific sensor probes for detecting sourness (CA0), saltiness (CT0), bitterness (C00), sweetness (GL1), and umami (AAE). Samples were tested at concentrations of 0.1 mg/mL and 1.0 mg/mL. Prior to experiments, sensors were activated by immersion in a reference solution (30 mM KCl and 0.3 mM tartaric acid) for 24 h. A 30 min self-diagnostic procedure was performed before each measurement to ensure data accuracy. The reference solution served both as a cleaning solution and standard solution for taste signal calibration. According to the manufacturer’s instructions, using the reference solution as baseline, the detection thresholds were set at −13 for sourness, −6 for saltiness, and 0 for other taste modalities. Two cleaning solutions were employed for electrode maintenance: (1) 30% ethanol solution containing 100 mM HCl for negative charge reference electrodes, and (2) 30% ethanol solution containing 100 mM KCl and 10 mM KOH for positive charge reference electrodes. All taste measurements were performed at room temperature with four replicates, except for sweetness which was measured five times. The first measurement data were excluded from analysis.

AQDDLP [TaPep20]
Average cell viability, HPNE [1]: 110.18 | Cell viability, HPNE, Data1 [1]: 113.51 | Cell viability, HPNE, Data2 [1]: 117.20 | Cell viability, HPNE, Data3 [1]: 99.83 | Average cell viability, HEK293T [2]: 99.56 | Cell viability, HEK293T, Data1 [2]: 100.69 | Cell viability, HEK293T, Data2 [2]: 99.18 | Cell viability, HEK293T, Data3 [2]: 98.80 | Average cell viability, HUVEC [3]: 100.19 | Cell viability, HUVEC, Data1 [3]: 93.96 | Cell viability, HUVEC, Data2 [3]: 106.73 | Cell viability, HUVEC, Data3 [3]: 99.87 | Average cell viability, BEAS-2B [4]: 101.76 | Cell viability, BEAS-2B, Data1 [4]: 114.06 | Cell viability, BEAS-2B, Data2 [4]: 96.91 | Cell viability, BEAS-2B, Data3 [4]: 94.32 | Umami ([5]; peptide 0.1 mg/mL): 1.29 | Umami ([5]; peptide 1 mg/mL): -4.77 | Bitter ([5]; sensor C00, peptide 0.1 mg/mL): 7.24 | Bitter ([5]; sensor C00, peptide 1 mg/mL): 3.35 | Sour ([5]; sensor CA0, peptide 0.1 mg/mL): -2.48 | Sour ([5]; sensor CA0, peptide 1 mg/mL): 11.76 | Salty ([5]; sensor CT0, peptide 0.1 mg/mL): -21.79 | Salty ([5]; sensor CT0, peptide 1 mg/mL): 6.62 | Sweet ([5]; sensor GL1, peptide 0.1 mg/mL): 5.13 | Sweet ([5]; sensor GL1, peptide 1 mg/mL): -4.17

AQKQE [TaPep53]
Average cell viability, HPNE [1]: 100.53 | Cell viability, HPNE, Data1 [1]: 111.51 | Cell viability, HPNE, Data2 [1]: 101.33 | Cell viability, HPNE, Data3 [1]: 88.75 | Average cell viability, HEK293T [2]: 96.06 | Cell viability, HEK293T, Data1 [2]: 101.55 | Cell viability, HEK293T, Data2 [2]: 93.50 | Cell viability, HEK293T, Data3 [2]: 93.12 | Average cell viability, HUVEC [3]: 99.25 | Cell viability, HUVEC, Data1 [3]: 90.21 | Cell viability, HUVEC, Data2 [3]: 95.96 | Cell viability, HUVEC, Data3 [3]: 111.60 | Average cell viability, BEAS-2B [4]: 99.50 | Cell viability, BEAS-2B, Data1 [4]: 92.92 | Cell viability, BEAS-2B, Data2 [4]: 110.37 | Cell viability, BEAS-2B, Data3 [4]: 95.21 | Umami ([5]; peptide 0.1 mg/mL): 2.86 | Umami ([5]; peptide 1 mg/mL): -3.47 | Bitter ([5]; sensor C00, peptide 0.1 mg/mL): 7.88 | Bitter ([5]; sensor C00, peptide 1 mg/mL): 2.74 | Sour ([5]; sensor CA0, peptide 0.1 mg/mL): -6.36 | Sour ([5]; sensor CA0, peptide 1 mg/mL): 8.92 | Salty ([5]; sensor CT0, peptide 0.1 mg/mL): -19.95 | Salty ([5]; sensor CT0, peptide 1 mg/mL): 13.59 | Sweet ([5]; sensor GL1, peptide 0.1 mg/mL): 9.02 | Sweet ([5]; sensor GL1, peptide 1 mg/mL): -4.92

AQSSLS [TaPep40]
Average cell viability, HPNE [1]: 106.99 | Cell viability, HPNE, Data1 [1]: 100.53 | Cell viability, HPNE, Data2 [1]: 109.02 | Cell viability, HPNE, Data3 [1]: 111.41 | Average cell viability, HEK293T [2]: 100.57 | Cell viability, HEK293T, Data1 [2]: 103.15 | Cell viability, HEK293T, Data2 [2]: 101.26 | Cell viability, HEK293T, Data3 [2]: 97.29 | Average cell viability, HUVEC [3]: 101.30 | Cell viability, HUVEC, Data1 [3]: 102.66 | Cell viability, HUVEC, Data2 [3]: 110.88 | Cell viability, HUVEC, Data3 [3]: 90.37 | Average cell viability, BEAS-2B [4]: 101.16 | Cell viability, BEAS-2B, Data1 [4]: 116.45 | Cell viability, BEAS-2B, Data2 [4]: 94.02 | Cell viability, BEAS-2B, Data3 [4]: 93.02 | Umami ([5]; peptide 0.1 mg/mL): 2.37 | Umami ([5]; peptide 1 mg/mL): -3.91 | Bitter ([5]; sensor C00, peptide 0.1 mg/mL): 7.48 | Bitter ([5]; sensor C00, peptide 1 mg/mL): 3.31 | Sour ([5]; sensor CA0, peptide 0.1 mg/mL): -5.48 | Sour ([5]; sensor CA0, peptide 1 mg/mL): 10.99 | Salty ([5]; sensor CT0, peptide 0.1 mg/mL): -19.59 | Salty ([5]; sensor CT0, peptide 1 mg/mL): 10.09 | Sweet ([5]; sensor GL1, peptide 0.1 mg/mL): 10.64 | Sweet ([5]; sensor GL1, peptide 1 mg/mL): -5.29

AWDGQ [TaPep73]
Average cell viability, HPNE [1]: 107.55 | Cell viability, HPNE, Data1 [1]: 109.82 | Cell viability, HPNE, Data2 [1]: 117.40 | Cell viability, HPNE, Data3 [1]: 95.44 | Average cell viability, HEK293T [2]: 106.97 | Cell viability, HEK293T, Data1 [2]: 104.20 | Cell viability, HEK293T, Data2 [2]: 108.17 | Cell viability, HEK293T, Data3 [2]: 108.55 | Average cell viability, HUVEC [3]: 105.51 | Cell viability, HUVEC, Data1 [3]: 111.28 | Cell viability, HUVEC, Data2 [3]: 115.27 | Cell viability, HUVEC, Data3 [3]: 89.97 | Average cell viability, BEAS-2B [4]: 106.58 | Cell viability, BEAS-2B, Data1 [4]: 95.61 | Cell viability, BEAS-2B, Data2 [4]: 116.85 | Cell viability, BEAS-2B, Data3 [4]: 107.28 | Umami ([5]; peptide 0.1 mg/mL): 0.77 | Umami ([5]; peptide 1 mg/mL): -5.41 | Bitter ([5]; sensor C00, peptide 0.1 mg/mL): 7.64 | Bitter ([5]; sensor C00, peptide 1 mg/mL): 4.33 | Sour ([5]; sensor CA0, peptide 0.1 mg/mL): -1.22 | Sour ([5]; sensor CA0, peptide 1 mg/mL): 13.38 | Salty ([5]; sensor CT0, peptide 0.1 mg/mL): -19.69 | Salty ([5]; sensor CT0, peptide 1 mg/mL): 8.78 | Sweet ([5]; sensor GL1, peptide 0.1 mg/mL): 4.76 | Sweet ([5]; sensor GL1, peptide 1 mg/mL): -5.09

DAAEK [TaPep2]
Average cell viability, HPNE [1]: 105.52 | Cell viability, HPNE, Data1 [1]: 116.01 | Cell viability, HPNE, Data2 [1]: 111.51 | Cell viability, HPNE, Data3 [1]: 89.05 | Average cell viability, HEK293T [2]: 92.18 | Cell viability, HEK293T, Data1 [2]: 95.02 | Cell viability, HEK293T, Data2 [2]: 84.13 | Cell viability, HEK293T, Data3 [2]: 97.38 | Average cell viability, HUVEC [3]: 95.40 | Cell viability, HUVEC, Data1 [3]: 97.15 | Cell viability, HUVEC, Data2 [3]: 96.19 | Cell viability, HUVEC, Data3 [3]: 92.84 | Average cell viability, BEAS-2B [4]: 107.18 | Cell viability, BEAS-2B, Data1 [4]: 116.05 | Cell viability, BEAS-2B, Data2 [4]: 111.86 | Cell viability, BEAS-2B, Data3 [4]: 93.62 | Umami ([5]; peptide 0.1 mg/mL): 1.21 | Umami ([5]; peptide 1 mg/mL): -4.05 | Bitter ([5]; sensor C00, peptide 0.1 mg/mL): 7.88 | Bitter ([5]; sensor C00, peptide 1 mg/mL): 2.74 | Sour ([5]; sensor CA0, peptide 0.1 mg/mL): -2.30 | Sour ([5]; sensor CA0, peptide 1 mg/mL): 12.60 | Salty ([5]; sensor CT0, peptide 0.1 mg/mL): -19.03 | Salty ([5]; sensor CT0, peptide 1 mg/mL): 13.52 | Sweet ([5]; sensor GL1, peptide 0.1 mg/mL): 6.09 | Sweet ([5]; sensor GL1, peptide 1 mg/mL): -5.50

DAELDK [TaPep34]
Average cell viability, HPNE [1]: 103.89 | Cell viability, HPNE, Data1 [1]: 99.83 | Cell viability, HPNE, Data2 [1]: 96.64 | Cell viability, HPNE, Data3 [1]: 115.21 | Average cell viability, HEK293T [2]: 101.89 | Cell viability, HEK293T, Data1 [2]: 98.04 | Cell viability, HEK293T, Data2 [2]: 102.49 | Cell viability, HEK293T, Data3 [2]: 105.14 | Average cell viability, HUVEC [3]: 96.25 | Cell viability, HUVEC, Data1 [3]: 90.61 | Cell viability, HUVEC, Data2 [3]: 95.80 | Cell viability, HUVEC, Data3 [3]: 102.34 | Average cell viability, BEAS-2B [4]: 99.04 | Cell viability, BEAS-2B, Data1 [4]: 114.56 | Cell viability, BEAS-2B, Data2 [4]: 90.63 | Cell viability, BEAS-2B, Data3 [4]: 91.92 | Umami ([5]; peptide 0.1 mg/mL): 0.43 | Umami ([5]; peptide 1 mg/mL): -4.87 | Bitter ([5]; sensor C00, peptide 0.1 mg/mL): 7.62 | Bitter ([5]; sensor C00, peptide 1 mg/mL): 3.25 | Sour ([5]; sensor CA0, peptide 0.1 mg/mL): -0.52 | Sour ([5]; sensor CA0, peptide 1 mg/mL): 15.34 | Salty ([5]; sensor CT0, peptide 0.1 mg/mL): -17.51 | Salty ([5]; sensor CT0, peptide 1 mg/mL): 13.63 | Sweet ([5]; sensor GL1, peptide 0.1 mg/mL): 5.08 | Sweet ([5]; sensor GL1, peptide 1 mg/mL): -6.74
